Source: article PMC9864219, “Chemodiversity and Anti-Leukemia Effect of Metabolites from Penicillium setosum CMLD 18” (Metabolites, 2022)

Experiments:
[1] = tested on: L1210 cells; parameters: method as in PMID 6320499; conditions: read-out: IC50 inhibiting L1210 cells; cited from earlier work
[2] = tested on: Hela; parameters: method as in PMID 28509552; conditions: Alamar Blue, 72 hrs; cited from earlier work
[3] = tested on: Jurkat; parameters: method as in PMID 28509552; conditions: Alamar Blue, 72 hrs; cited from earlier work
[4] = tested on: Kasumi-1; experiment: Resazurin cell viability assay, Kasumi-1; format: cell-based, human; conditions: for cell viability: Kasumi-1, 100 μM, 48 h, resazurin (Figure 5A)
Source text: (§1) Human leukemic cell lines (Kasumi-1, KG-1, MOLT-4, and Jurkat) were obtained from the American Type Culture Collection (ATCC). KG-1 cells were maintained in Iscove’s modified Dulbecco’s medium (IMDM) supplemented with 20% fetal bovine serum (FBS) (Cultilab, Campinas, Brazil), according to criteria adopted by the cell bank (https://www.atcc.org/products/ccl-246#detailed-product-information) accessed on 10 November 2021, whereas the other lineages were maintained in Roswell Park Memorial Institute medium (RPMI 1640) (Sigma Aldrich, St. Louis, MI, USA) supplemented with 10% FBS. All cells were cultured in a medium containing 100 U/mL penicillin (Sigma Aldrich, St. Louis, MI, USA) and 100 μg/mL streptomycin (Sigma Aldrich, St. Louis, MI, USA) and in a humidified incubator containing 5% CO2 at 37 °C. Passage numbers for all leukemic cell lines were between 3 and 6.
(§2) A resazurin assay (Sigma Aldrich, St. Louis, MI, USA) was used to screen and assess the activity of extracts, fractions, and isolated compounds against leukemic cell lines. Briefly, 10^5 cells/mL were seeded in 96-well plates containing supplemented medium. Cells were treated in the presence or absence of compounds for 48 h using a high concentration (100 µg/mL or 100 µM to isolated compounds) or a concentration–response curve (100, 50, 25, 12.5, 6.25, 3.12, 1.56, and 0.78 µM) after 24 h of treatment with isolated compounds was constructed. After treatment, the cell culture medium was removed, and 100 µL of medium with 10% Resazurin solution was added; after 4 h of incubation, the fluorescence was measured (excitation 530 nm, emission 590 nm) in a FlexStation 3 microplate reader (Molecular Devices, San Jose, CA, USA). Each experiment was performed in triplicate.

[5] = tested on: K-562; parameters: method as in PMID 28509552; conditions: Alamar Blue, 72 hrs; cited from earlier work
[6] = tested on: Jurkat; experiment: Resazurin cell viability assay, Jurkat; format: cell-based, human; conditions: for cell viability: 100 μM, 48 h, resazurin (Figure 5B)
Source text: as §1, §2

[7] = target: ACL, an ATP citrate lyase; parameters: method as in PMID 27997879; conditions: read-out: IC50 inhibitory activity against ACL; cited from earlier work
[8] = tested on: cleaved caspase-3 in Jurkat; experiment: Intracellular labeling of cleaved caspase-3 by flow cytometry, Jurkat; format: cell-based, human; conditions: 50 μM, 24 h
Procedure: (§3) Kasumi-1 and Jurkat cells (10^5/mL) were treated for 24 h with EC50, 50, or 50 µM 10, respectively. Then, cells were fixed with BD Cytofix (BD Biosciences, Mississauga, ON, Canadá) for 15 min, washed with BD Perm/Wash buffer, and permeabilized with Perm Buffer III (BD, USA) for 30 min at room temperature. In order to label cleaved caspase-3 protein (Cell Signaling, Danvers, MA, USA), cells were incubated for 1 h with primary antibody (1:800). Anti-rabbit IgG secondary antibodies conjugated with Alexa Fluor 488 (Thermo Fisher Scientific, Waltham, MA, USA) (1:1000) were incubated for at least 40 min, and the fluorescence was measured using an Accuri C6 flow cytometer and FlowJo software to analyze the results; 20,000 events were collected per sample. Protein analyses were performed using GM fluorescence intensity.

[9] = tested on: Jurkat; experiment: Cell cycle analysis (PI) and cell count, Jurkat; format: cell-based, human; conditions: 10 μM, 72 h
Procedure: The distribution of cell cycle phases was determined by propidium iodide (PI) staining and flow cytometry analysis. […] Then, the cells were fixed and permeabilized as previously described and treated with 4 μg/mL RNase (Sigma Aldrich, St. Louis, MI, USA) for 45 min at 37 °C. For DNA labeling, cells were incubated with 5 μg/mL of PI (Sigma Aldrich, St. Louis, MI, USA). Percentages of cells within cell cycle compartments (G1/G0, S, and G2/M) were performed using an Accuri C6 flow cytometer (BD Biosciences, Mississauga, Canadá). A total of 40,000 events were acquired.

[10] = tested on: CD11b expression in Kasumi-1 cells; experiment: Cell differentiation by immunophenotyping (CD11b); format: cell-based, human; conditions: Kasumi-1, 10 μM, 72 h
Procedure: Cells (10^5/mL) were treated with 10 μM Compound 10 for 72 h. Then, the cells were collected and stained with CD11b-Cy7/PE (2 μL) (BD, USA). The measurements of fluorescence intensity were performed using an Accuri C6 flow cytometer (BD Biosciences, Mississauga, Canadá); 40,000 events were collected per sample. Results were expressed as GM fluorescence intensity.

[11] = tested on: HL-60; parameters: method as in doi:10.1016/j.cclet.2017.09.006; conditions: acute myeloid leukemia cell line; read-out: IC50 against the HL-60 lineage; cited from earlier work
[12] = tested on: Jurkat; experiment: Annexin V-FITC/7-AAD flow cytometry assay, Jurkat; format: cell-based, human; conditions: 50 μM, 24 h
Procedure: (§4) An Annexin V-FITC/7-AAD double staining assay was performed to evaluate the proapoptotic effect of 10. Kasumi-1 and Jurkat cells (10^5/mL) were treated for 24 h with EC50, 50, or 50 µM 10, respectively, or Staurosporine (1 µM) (Sigma Aldrich, St. Louis, MI, USA). Then, the cells were resuspended in annexin binding buffer (0.14 M NaCl, 2.5 mM CaCl2, 0.01 M HEPES, pH 7.4) and incubated at room temperature with 1 μL and 2 μL of annexin V-FITC and 7-AAD (Becton Dickinson, Covington, GA, USA), respectively, for 30 min. Data were analyzed using FlowJo V10 (Becton Dickinson—BD, USA) software; 20,000 events were collected per sample.

[13] = tested on: cleaved caspase-3 in Kasumi-1; experiment: Intracellular labeling of cleaved caspase-3 by flow cytometry, Kasumi-1; format: cell-based, human; conditions: Kasumi-1, 50 μM, 24 h
Procedure: as §3

[14] = tested on: normal PBMC cells; experiment: Resazurin cell viability assay, normal PBMC; format: cell-based, human; conditions: concentration-response curve, 24 h
Procedure: Peripheral blood mononuclear cells (PBMCs) were obtained from three healthy donors. Human monocytes were collected from healthy donors after informed patient consent was obtained. Separation of mononuclear cells was performed by gradient centrifugation methods using Ficoll Histopaque-1077 (1.077 g/cm^3) (Sigma Aldrich, St. Louis, MI, USA) following the manufacturer’s instructions. The use of human samples was approved by the local Ethical Committee of the Universidade Federal de Mato Grosso do Sul (CAAE35853720.2.0000.0021). Cells were maintained in IMDM supplemented with 20% FBS, 100 U/mL penicillin, and 100 μg/mL streptomycin in a humidified atmosphere at 37 °C in 5% CO2.
A resazurin assay (Sigma Aldrich, St. Louis, MI, USA) was used to screen and assess the activity of extracts, fractions, and isolated compounds against leukemic cell lines. Briefly, 10^5 cells/mL were seeded in 96-well plates containing supplemented medium. […] After treatment, the cell culture medium was removed, and 100 µL of medium with 10% Resazurin solution was added; after 4 h of incubation, the fluorescence was measured (excitation 530 nm, emission 590 nm) in a FlexStation 3 microplate reader (Molecular Devices, San Jose, CA, USA). […]

[15] = tested on: Kasumi-1; experiment: Cell cycle analysis (PI) and cell count, Kasumi-1; format: cell-based, human; conditions: Kasumi-1, 10 μM, 72 h
Procedure: The distribution of cell cycle phases was determined by propidium iodide (PI) staining and flow cytometry analysis. Kasumi-1 and Jurkat cells (10^5/mL) were treated with 10 (10 μM or 1 μM, respectively) for 72 h. Then, the cells were fixed and permeabilized as previously described and treated with 4 μg/mL RNase (Sigma Aldrich, St. Louis, MI, USA) for 45 min at 37 °C. For DNA labeling, cells were incubated with 5 μg/mL of PI (Sigma Aldrich, St. Louis, MI, USA). Percentages of cells within cell cycle compartments (G1/G0, S, and G2/M) were performed using an Accuri C6 flow cytometer (BD Biosciences, Mississauga, Canadá). A total of 40,000 events were acquired.

[16] = tested on: Kasumi-1; experiment: Annexin V-FITC/7-AAD flow cytometry assay, Kasumi-1; format: cell-based, human; conditions: Kasumi-1, 50 μM, 24 h
Procedure: as §4

Cc1cc(O)c2c(c1)C(=O)c1cc(O)cc(O)c1C2=O [Compound 3, emodin]
IC50 [1]: 35 µM

O=C1c2cc(CO)cc(O)c2C(=O)c2c1cc(O)c(Cl)c2O [Compound 7, 2-chloro-1,3,8-trihydroxy-6-(hydroxymethyl)anthracene-9,10-dione]
activity against Hela [2]: inactive
activity against Jurkat [3]: inactive
cell viability [4]: reduction in cell viability
activity against K-562 [5]: inactive
cell viability [6]: reduction in cell viability

Cc1cc(O)c2c(c1)C(=O)c1cc(O)c(Cl)c(O)c1C2=O [Compound 8, 7-chloroemodin]
cell viability [4]: reduction in cell viability
IC50 [7]: 12.6 µM
cell viability [6]: reduction in cell viability

CSC12CC3=COC=CC(OC(C)=O)C3N1C(=O)C1(SC)CC3=COC=CC(OC(C)=O)C3N1C2=O (stereo not shown) [Compound 9, bisdethiobis(methylthio)acetylaranotine]
cell viability [4]: reduction in cell viability
cell viability [6]: reduction in cell viability

C=CC(C)(C)c1[nH]c2ccccc2c1CC1NC(=O)C(Cc2c(C(C)(C)C=C)[nH]c3ccccc23)NC1=O (stereo not shown) [Compound 10, fellutanine C]
cleaved-caspase-3 [8]: increased cleaved-caspase-3
cell proliferation (cell count) [9]: reduction in cell proliferation
cell viability at the cell cycle concentration [9]: did not observe a reduction in cell viability
cell cycle distribution ([9]; PI staining): cell cycle arrest in G0/G1
expression of mature myeloid marker CD11b [10]: did not produce an increase in the expression of CD11b
IC50 [11]: 9.34 µM
cell death mode (Annexin V-FITC and 7-AAD staining) [12]: predominant double staining (late apoptosis and necrosis-like)
cleaved-caspase-3 [13]: increased cleaved-caspase-3
EC50 ([4]; Homo sapiens, Kasumi-1, concentration-response curve, 24 h, resazurin): 50 µM
cell viability [4]: reduction in cell viability
cytotoxicity effect on normal PBMC cells [14]: did not show a cytotoxicity effect
cell proliferation (cell count) [15]: reduction in cell proliferation
cell viability at the cell cycle concentration [15]: did not observe a reduction in cell viability
cell cycle distribution ([15]; PI staining): cell cycle arrest in G0/G1
cell death mode (Annexin V-FITC and 7-AAD staining) [16]: predominant apoptosis staining (Anx-FITC+/7 AAD-)
cell viability [6]: reduction in cell viability
EC50 ([6]; Homo sapiens, concentration-response curve, 24 h, resazurin): 50 µM
